# Measurements reported in patent US10206902B2, “Mono- or di-substituted indoles as dengue viral replication inhibitors” (priority 2014, dated 2019).
# How the values were obtained:
# Assay type in all cases: cell-based
# [1] = test system: DENV-3 strain H87; test: Tetravalent RT-qPCR assay Protocol A, serotype 3; details: Dengue virus, DENV3, 72 h, RT-qPCR serotype 3 H87, Vero cells, day 3
# Description: (§1) The antiviral activity of the compounds of the invention was tested against DENV-1 strain TC974#666 (NCPV), DENV-2 strain 16681, DENV-3 strain H87 (NCPV) and DENV-4 strains H241 (NCPV) and EDEN (SG/06K2270DK1/2005; GenBank accession number QG398256) in a RT-qPCR assay. Therefore, Vero cells were infected with either DENV-1, or -2, or -3, or -4 in the presence or absence of test compounds. At day 3 post-infection, the cells were lysed and cell lysates were used to prepare cDNA of both a viral target (the 3′UTR of DENV; table 2) and a cellular reference gene (β-actin, table 2). Subsequently, a duplex real time PCR was performed on a Lightcycler480 instrument. The generated Cp value is inversely proportional to the amount of RNA expression of these targets. Inhibition of DENV replication by a test compound result in a shift of Cp's for the 3′UTR gene. On the other hand, if a test compound is toxic to the cells, a similar effect on β-actin expression will be observed. The comparative ΔΔCp method is used to calculate EC50, which is based on the relative gene expression of the target gene (3′UTR) normalized with the cellular housekeeping gene (β-actin). In addition, CC50 values were determined based on the Cp values acquired for the housekeeping gene β-actin.
# (§2) The culture medium consisted of minimal essential medium supplemented with 2% of heat-inactivated fetal calf serum, 0.04% gentamycin (50 mg/mL) and 2 mM of L-glutamine. Vero cells, obtained from ECACC, were suspended in culture medium and 75 μL/well was added in 96-well plates (10000 cells/well), which already contain the antiviral compounds. Typically, these plates contain a 4-fold serial dilution of 9 dilution steps of the test compound at 200 times the final concentration in 100% DMSO (500 nL; final concentration range: 25 μM-0.00038 μM). In addition, each plate contains wells which are assigned as virus controls (containing cells and virus in the absence of compound) and cell controls (containing cells in the absence of virus and compound). Once the cells were added in the plates, the plates were incubated in a fully humidified incubator (37° C., 5% CO2) until the next day. Then, DENV-1 strain TC974#666, DENV-2 strain 16681, DENV-3 strain H87 or DENV-4 strains H241 or EDEN were added. […] In parallel, 25 μL of culture medium was added to the cell controls. Next, the plates were incubated for 3 days in a fully humidified incubator (37° C., 5% CO2). After 3 days, the supernatant was removed from the wells and the cells were washed twice with ice-cold PBS (˜100 μL). The cell pellets within the 96-well plates were stored at −80° C. for at least 1 day. Next, RNA was extracted using the Cells-to-CT™ lysis kit, according to the manufacture's guideline (Applied Biosystems). The cell lysates can be stored at −80° C. or immediately used in the reverse transcription step. In preparation of the reverse transcription step, mix A (table 3A) was prepared and 7.57 μL/well was dispensed in a 96-well plate. After addition of 5 μL of the cell lysates, a five minute denaturation step at 75° C. was performed (table 3B). Afterwards, 7.43 μL of mix B was added (table 3C) and the reverse transcription step was initiated (table 3D) to generate cDNA.
# (§3) Finally, a RT-qPCR mix was prepared, mix C (table 4A), dispensed in 96-well LightCycler qPCR plates to which 3 μL of cDNA was added and the qPCR was performed according to the conditions in table 4B on a LightCycler 480. Using the LightCycler software and an in-house LIMS system, dose response curves for each compound were calculated and the half maximal effective concentration (EC50) and the half maximal cytotoxic concentration (CO50) were determined (Tables 6-9).
# [2] = test system: DENV-4 strain H241; test: Tetravalent RT-qPCR assay Protocol A, serotype 4 H241; details: Dengue virus, DENV4, 72 h, RT-qPCR serotype 4 H241, Vero cells, day 3
# Description: as §1, §2, §3
# [3] = test system: DENV-1 Djibouti strain D1/H/IMTSSA/98/606; test: Tetravalent RT-qPCR assay Protocol B, serotype 1; details: Dengue virus, DENV1, Vero, 168 h
# Description: (§4) Vero cells (4×10^4) were seeded in 96-well plates. […] Following a 2 hour incubation period, the cell monolayer was washed 3 times with assay medium to remove residual, non-adsorbed virus and cultures were further incubated for either 4 days (DENV-2 NGC-Tongalike) or 7 days (DENV-1 Djibouti strain D1/H/IMTSSA/98/606, DENV-3 strain H87 prototype, DENV-4 strain H241′) in the presence of the inhibitor. Supernatant was harvested and viral RNA load was determined by real-time quantitative RT-PCR. The 50% effective concentration (EC50), which is defined as the compound concentration that is required to inhibit viral RNA replication by 50%, was determined using logarithmic interpolation (Tables 7 and 8). RNA was isolated from 100 μL supernatant with the NucleoSpin 96 Virus kit (Filter Service, Duren, Germany) as described by the manufacturer. The sequences of the TaqMan primers (DENV-For, DENV-Rev; Table 5) and TaqMan probes (DENV-Probe Table 5) were selected from non-structural gene 3 (NS3) or NS5, of the respective flaviviruses using Primer Express software (version 2.0; Applied Biosystems, Lennik, Belgium). The TaqMan probe was fluorescently labelled with 6-carboxyfluorescein (FAM) at the 5′ end as the reporter dye, and with minor groove binder (MGB) at the 3′ end as the quencher (Table 5). One-step, quantitative RT-PCR was performed in a total volume of 25 μL, containing 13.9375 μL H2O, 6.25 μL master mix (Eurogentec, Seraing, Belgium), 0.375 μL forward primer, 0.375 μL reverse primer, 1 μL probe, 0.0625 μL reverse transcriptase (Eurogentec) and 3 μL sample. RT-PCR was performed using the ABI 7500 Fast Real-Time PCR System (Applied Biosystems, Branchburg, N.J., USA) using the following conditions: 30 min at 48° C. and 10 min at 95° C., followed by 40 cycles of 15 s at 95° C. and 1 min at 60° C. The data was analyzed using the ABI PRISM 7500 SDS software (version 1.3.1; Applied Biosystems). For absolute quantification, standard curves were generated using 10-fold dilutions of template preparations of known concentrations.
# [4] = test system: DENV-3 strain H87 prototype; test: Tetravalent RT-qPCR assay Protocol B, serotype 3; details: Dengue virus, DENV3, 168 h, RT-qPCR serotype 3 H87, Vero cells, 7 days
# Description: as §4
Structure (SMILES),EC50 [1] [nM],EC50 [2] [nM],EC50 [3] [nM],EC50 [4] [nM]
"COc1cc(NC(C(=O)c2c[nH]c3c(C)c(OC)ccc23)c2ccc(F)cc2OC)cc(OCCO)c1 (single isomer, unassigned) [Compound 11A, 2-(4-fluoro-2-methoxyphenyl)-2-((3-(2-hydroxyethoxy)-5-methoxyphenyl)amino)-1-(6-methoxy-7-methyl-1H-indol-3-yl)ethanone]",85,350,23,40
"COc1cc(NC(C(=O)c2c[nH]c3c(F)cc(C)cc23)c2ccc(F)cc2OC)cc(OCCO)c1 (single isomer, unassigned) [Compound 12B, 2-(4-fluoro-2-methoxyphenyl)-1-(7-fluoro-5-methyl-1H-indol-3-yl)-2-((3-(2-hydroxyethoxy)-5-methoxyphenyl)amino)ethanone]",270,290,96,77
"COc1cc(NC(C(=O)c2c[nH]c3cc(Cl)ccc23)c2ccc(F)cc2OC)cc(OCCO)c1 (single isomer, unassigned) [Compound 4A, 1-(6-chloro-1H-indol-3-yl)-2-(4-fluoro-2-methoxyphenyl)-2-((3-(2-hydroxyethoxy)-5-methoxyphenyl)amino)ethanone]",140,400,27,16
"COc1cc(NC(C(=O)c2c[nH]c3c(C)c(F)ccc23)c2ccc(F)cc2OC)cc(OCCO)c1 (single isomer, unassigned) [Compound 2B, 2-(4-fluoro-2-methoxyphenyl)-1-(6-fluoro-7-methyl-1H-indol-3-yl)-2-((3-(2-hydroxyethoxy)-5-methoxyphenyl)amino)ethanone]",110,320,41,42
"COc1cc(NC(C(=O)c2c[nH]c3c(Cl)c(OC)ccc23)c2ccc(F)cc2OC)cc(OCCO)c1 (single isomer, unassigned) [Compound 8A, 1-(7-chloro-6-methoxy-1H-indol-3-yl)-2-(4-fluoro-2-methoxyphenyl)-2-((3-(2-hydroxyethoxy)-5-methoxyphenyl)amino)ethanone]",200,520,49,29
"COc1cc(NC(C(=O)c2c[nH]c3cc(F)c(F)cc23)c2ccc(F)cc2OC)cc(OCCO)c1 (single isomer, unassigned) [Compound 10B, 1-(5,6-difluoro-1H-indol-3-yl)-2-(4-fluoro-2-methoxy-phenyl)-2-((3-(2-hydroxyethoxy)-5-methoxyphenyl)amino)ethanone]",130,390,52,< 22
"COc1cc(NC(C(=O)c2c[nH]c3cc(F)ccc23)c2ccc(F)cc2OC)cc(OCCO)c1 (single isomer, unassigned) [Compound 1A, 1-(6-fluoro-1H-indol-3-yl)-2-(4-fluoro-2-methoxyphenyl)-2-((3-(2-hydroxyethoxy)-5-methoxyphenyl)amino)ethanone]",120,480,40,53
"COc1cc(NC(C(=O)c2c[nH]c3c(C)cc(F)cc23)c2ccc(F)cc2OC)cc(OCCO)c1 (single isomer, unassigned) [Compound 9B, 2-(4-fluoro-2-methoxyphenyl)-1-(5-fluoro-7-methyl-1H-indol-3-yl)-2-((3-(2-hydroxyethoxy)-5-methoxyphenyl)amino)ethanone]",190,390,42,66
"COc1cc(NC(C(=O)c2c[nH]c3cc(OC)c(F)cc23)c2ccc(F)cc2OC)cc(OCCO)c1 (single isomer, unassigned) [Compound 7A, 2-(4-fluoro-2-methoxyphenyl)-1-(5-fluoro-6-methoxy-1H-indol-3-yl)-2-((3-(2-hydroxyethoxy)-5-methoxyphenyl)amino)ethanone]",190,470,55,41
"COc1cc(NC(C(=O)c2c[nH]c3cc(OC)c(C)cc23)c2ccc(F)cc2OC)cc(OCCO)c1 (single isomer, unassigned) [Compound 6A, 2-(4-fluoro-2-methoxyphenyl)-2-((3-(2-hydroxyethoxy)-5-methoxyphenyl)amino)-1-(6-methoxy-5-methyl-1H-indol-3-yl)ethanone]",130,200,21,20
"COc1cc(NC(C(=O)c2c[nH]c3c(F)c(F)ccc23)c2ccc(F)cc2OC)cc(OCCO)c1 (single isomer, unassigned) [Compound 5B, 1-(6,7-difluoro-1H-indol-3-yl)-2-(4-fluoro-2-methoxyphenyl)-2-((3-(2-hydroxyethoxy)-5-methoxyphenyl)amino)ethanone]",190,450,65,50
"COc1cc(NC(C(=O)c2c[nH]c3c(C)c(Cl)ccc23)c2ccc(F)cc2OC)cc(OCCO)c1 (single isomer, unassigned) [Compound 3A, 1-(6-chloro-7-methyl-1H-indol-3-yl)-2-(4-fluoro-2-methoxyphenyl)-2-((3-(2-hydroxyethoxy)-5-methoxyphenyl)amino)ethanone]",88,240,45,32
